This is an account of results in ChEMBL document CHEMBL1135887, “Substituted pentacyclic carbazolones as novel muscarinic allosteric agents: synthesis and structure-affinity and cooperativity relationships” (J Med Chem, 2002).

Where only a bound is given, the exact number is not on record here.

Assay [1] concerns the target T1, Muscarinic acetylcholine receptor M2 (Homo sapiens) (UniProt P08172).
T1 sequence (whole entry): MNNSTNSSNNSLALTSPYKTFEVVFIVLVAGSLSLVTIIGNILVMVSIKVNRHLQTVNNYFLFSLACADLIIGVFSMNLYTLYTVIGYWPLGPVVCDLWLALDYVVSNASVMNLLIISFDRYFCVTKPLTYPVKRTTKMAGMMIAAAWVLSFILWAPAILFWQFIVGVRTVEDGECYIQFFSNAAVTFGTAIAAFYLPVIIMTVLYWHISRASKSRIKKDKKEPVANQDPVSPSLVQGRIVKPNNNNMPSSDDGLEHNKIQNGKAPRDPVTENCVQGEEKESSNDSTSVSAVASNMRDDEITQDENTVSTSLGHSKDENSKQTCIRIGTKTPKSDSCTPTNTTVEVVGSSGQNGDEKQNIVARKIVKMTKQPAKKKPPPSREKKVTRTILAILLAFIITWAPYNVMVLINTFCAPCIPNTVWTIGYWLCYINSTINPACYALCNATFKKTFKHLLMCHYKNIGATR
Kind of assay: Logarithm of affinity (log 1/M) at the (N-methyl Scopolamine) NMS-liganded muscarinic acetylcholine receptor M2 by using semiquantitative equilibrium and off-rate assay.

For assay [2], the target named is Muscarinic acetylcholine receptor M3 (Homo sapiens) (UniProt P20309). Kind of assay: Logarithm of affinity (log 1/M) at the (N-methyl Scopolamine) NMS-liganded muscarinic acetylcholine receptor M3 by using semiquantitative equilibrium and off-rate assay.
Assay [3] has the same target. As to the kind of experiment: Logarithm of affinity (log 1/M) at the muscarinic acetylcholine receptor M3 by using semiquantitative equilibrium and off-rate assay.
The target is the same in assay [4]. As to the kind of experiment: Subtype selectivity and the cooperativity with N-methyl Scopolamine (NMS) at muscarinic acetylcholine receptor M3; Activity range is 0.2-0.8.
For assay [5], the target named is T2, Muscarinic acetylcholine receptor M4 (Homo sapiens) (UniProt P08173).
T2 sequence (whole entry): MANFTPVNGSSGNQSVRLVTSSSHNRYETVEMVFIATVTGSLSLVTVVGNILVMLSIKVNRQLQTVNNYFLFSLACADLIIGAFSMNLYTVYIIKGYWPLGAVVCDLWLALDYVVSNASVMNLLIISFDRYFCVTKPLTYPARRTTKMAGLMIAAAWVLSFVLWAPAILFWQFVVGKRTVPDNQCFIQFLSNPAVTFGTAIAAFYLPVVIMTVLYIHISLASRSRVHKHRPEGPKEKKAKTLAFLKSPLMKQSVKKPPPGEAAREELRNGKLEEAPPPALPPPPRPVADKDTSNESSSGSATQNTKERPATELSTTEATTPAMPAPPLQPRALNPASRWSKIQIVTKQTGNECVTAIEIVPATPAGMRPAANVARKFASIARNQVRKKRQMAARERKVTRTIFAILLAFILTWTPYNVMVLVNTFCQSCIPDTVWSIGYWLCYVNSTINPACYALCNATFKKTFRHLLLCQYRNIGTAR
Kind of assay: Logarithm of affinity (log 1/M) at the muscarinic acetylcholine receptor M4 by using semiquantitative equilibrium and off-rate assay.

The target in assay [6] is T1, Muscarinic acetylcholine receptor M2 (Homo sapiens). As to the kind of experiment: Logarithm of affinity (log 1/M) at the muscarinic acetylcholine receptor M2 by using semiquantitative equilibrium and off-rate assay.
The target in assay [7] is T2, Muscarinic acetylcholine receptor M4 (Homo sapiens). Kind of assay: Subtype selectivity and cooperativity with N-methyl Scopolamine (NMS) at Muscarinic acetylcholine receptor M4; Activity range is 1.2-3.
For assay [8], the target named is T1, Muscarinic acetylcholine receptor M2 (Homo sapiens). As to the kind of experiment: Subtype selectivity and the cooperativity with N-methyl Scopolamine (NMS) at Muscarinic acetylcholine receptor M2; Activity range is 1.2-3.
In assay [9] the target is T3, Muscarinic acetylcholine receptor M1 (Homo sapiens) (UniProt P11229).
T3 sequence (whole entry): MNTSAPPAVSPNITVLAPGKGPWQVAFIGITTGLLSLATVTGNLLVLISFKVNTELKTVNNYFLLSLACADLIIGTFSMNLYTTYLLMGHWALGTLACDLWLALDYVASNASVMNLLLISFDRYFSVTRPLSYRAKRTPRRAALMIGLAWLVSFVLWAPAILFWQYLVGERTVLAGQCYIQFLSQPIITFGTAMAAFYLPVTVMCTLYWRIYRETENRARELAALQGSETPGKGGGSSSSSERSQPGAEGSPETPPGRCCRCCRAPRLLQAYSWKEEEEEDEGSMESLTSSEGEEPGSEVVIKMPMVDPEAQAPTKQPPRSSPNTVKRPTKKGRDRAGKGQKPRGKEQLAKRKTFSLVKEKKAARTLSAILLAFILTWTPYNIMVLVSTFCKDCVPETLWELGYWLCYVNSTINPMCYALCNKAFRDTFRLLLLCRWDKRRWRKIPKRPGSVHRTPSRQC
Kind of assay: Subtype selectivity and the cooperativity with N-methyl Scopolamine (NMS) at Muscarinic acetylcholine receptor M1; Activity range is 1.2-3.

In assay [10] the target is T3, Muscarinic acetylcholine receptor M1 (Homo sapiens). As to the kind of experiment: Logarithm of affinity (log 1/M) at the (N-methyl Scopolamine) NMS-liganded muscarinic acetylcholine receptor M1 by using semiquantitative equilibrium and off-rate assay.
The target is the same in assay [11]. Kind of assay: Logarithm of affinity (log 1/M) at the free muscarinic acetylcholine receptor M1 by using semiquantitative equilibrium and off-rate assay.
The target in assay [12] is T2, Muscarinic acetylcholine receptor M4 (Homo sapiens). Kind of assay: Logarithm of affinity (log 1/M) at the (N-methyl Scopolamine) NMS-liganded muscarinic acetylcholine receptor M4 by using semiquantitative equilibrium and off-rate assay.
The target of assay [13] is Muscarinic acetylcholine receptor M3 (Homo sapiens) (UniProt P20309). As to the kind of experiment: Subtype selectivity and the cooperativity with N-methyl Scopolamine (NMS) at Muscarinic acetylcholine receptor M3; […].
The target of assay [14] is T1, Muscarinic acetylcholine receptor M2 (Homo sapiens). As to the kind of experiment: Subtype selectivity and the cooperativity with N-methyl Scopolamine (NMS) at Muscarinic acetylcholine receptor M2.
For assay [15], the target named is T2, Muscarinic acetylcholine receptor M4 (Homo sapiens). As to the kind of experiment: Subtype selectivity and the cooperativity with N-methyl Scopolamine (NMS) at Muscarinic acetylcholine receptor M4.
For assay [16], the target named is T3, Muscarinic acetylcholine receptor M1 (Homo sapiens). Kind of assay: Subtype selectivity and the cooperativity with N-methyl Scopolamine (NMS) at Muscarinic acetylcholine receptor M1.
Assay [17] deals with T2, Muscarinic acetylcholine receptor M4 (Homo sapiens). As to the kind of experiment: Subtype selectivity and the cooperativity with N-methyl Scopolamine (NMS) at Muscarinic acetylcholine receptor M4; Activity range is 0.2-0.8.
Assay [18] concerns the target T1, Muscarinic acetylcholine receptor M2 (Homo sapiens). As to the kind of experiment: Subtype selectivity and the cooperativity with N-methyl Scopolamine (NMS) at Muscarinic acetylcholine receptor M2; Activity range is 0.2-0.8.
Assay [19] deals with T3, Muscarinic acetylcholine receptor M1 (Homo sapiens). Kind of assay: Subtype selectivity and the cooperativity with N-methyl Scopolamine (NMS) at Muscarinic acetylcholine receptor M1; Activity range is 0.2-0.8.
The target is the same in assay [20]. As to the kind of experiment: Subtype selectivity and the cooperativity with N-methyl Scopolamine (NMS) at Muscarinic acetylcholine receptor M1; Activity range is 0.81-1.19.
Assay [21] has as its target T2, Muscarinic acetylcholine receptor M4 (Homo sapiens). As to the kind of experiment: Subtype selectivity and the cooperativity with N-methyl Scopolamine (NMS) at Muscarinic acetylcholine receptor M4; Activity range is 0.81-1.19.

Muscarinic acetylcholine receptor M3 (Homo sapiens), sequence (P20309 whole entry, looked up): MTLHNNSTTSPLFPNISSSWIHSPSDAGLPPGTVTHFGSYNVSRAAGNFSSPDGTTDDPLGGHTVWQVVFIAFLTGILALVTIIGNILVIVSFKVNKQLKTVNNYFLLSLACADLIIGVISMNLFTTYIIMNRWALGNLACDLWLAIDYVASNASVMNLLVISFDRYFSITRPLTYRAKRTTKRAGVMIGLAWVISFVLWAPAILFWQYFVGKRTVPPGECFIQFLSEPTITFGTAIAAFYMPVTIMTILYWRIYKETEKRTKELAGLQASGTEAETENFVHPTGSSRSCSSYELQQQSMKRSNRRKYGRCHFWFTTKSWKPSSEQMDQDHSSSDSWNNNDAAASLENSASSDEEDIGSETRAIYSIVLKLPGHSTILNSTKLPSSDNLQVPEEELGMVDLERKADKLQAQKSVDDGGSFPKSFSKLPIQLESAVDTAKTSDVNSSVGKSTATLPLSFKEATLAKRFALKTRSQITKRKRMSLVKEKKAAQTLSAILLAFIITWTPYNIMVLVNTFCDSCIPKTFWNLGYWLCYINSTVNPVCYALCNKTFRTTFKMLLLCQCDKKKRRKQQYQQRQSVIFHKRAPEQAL

For `COc1ccc2c3c4c(cc5c3n(c2c1)C(=O)CC5)CNCC4`, the Log 1/M in assay [1] was 6.35; in assay [2] it was 5.2; in assay [3], 5.33; in assay [5] it was 4.64; in assay [6], 5.9; in [10], 6.07. Also, the Log 1/M in [11] is 5.84; in assay [12], 6.14. The Cooperativity stood at 0.8 in [4], 3 in [7], 3 in assay [8] and 3 in assay [9].
For the compound `O=C1CCc2cc3c(c4c5c(O)cccc5n1c24)CCNC3`, the Log 1/M was 6.28 in assay [1]; 5.27 in assay [2]; 5.43 in [3]; 5.6 in assay [5]; 5.99 in assay [6]; 6.11 in assay [10]. Besides, the Log 1/M in assay [11] is 5.84; in assay [12] it was 6.13. In addition, the Cooperativity in [13] was 1.19; in assay [14] it was greater than 3; in assay [15], greater than 3; in [16], greater than 3.
For `COC(=O)c1ccc2c3c4c(cc5c3n(c2c1)C(=O)CC5)CNCC4`, the Log 1/M in assay [1] came to 6.35; in assay [2] it was 4.83; in [3], 5.43; in assay [5], 5.04; in assay [6] it was 6.39; in [10], 5.72. The Log 1/M in assay [11] amounted to 6.14; in assay [12], 6.01. For the same compound, the Cooperativity in [4], in assay [17], in [18] and in [19] was 0.8 in each case.
For the compound `COc1cc2c3c4c(cc5c3n(c2cc1OC)C(=O)CC5(C)C)CCNC4`, the Log 1/M in [1] amounted to 6.7; in assay [2], 5.47; in assay [3] it was 6.03; in [5], 6.67; in assay [6], 7.08; in assay [10], 6.29. Further, the Log 1/M is 6.88 in assay [11] and 6.37 in [12]. Also, the Cooperativity in assay [4], in assay [17], in assay [18] and in assay [19] was 0.8 in each case.
Turning to `O=C1CCc2cc3c(c4c5ccc(Cl)cc5n1c24)CCNC3`, the Log 1/M in [1] was determined as 6.81; in assay [2], 5.48; in assay [3] it was 5.39; in assay [5], 5.61; in [6], 6.46; in assay [10] it was 6.51. The Log 1/M in assay [11] worked out at 6.06; in [12], 6.47. Also, the Cooperativity in assay [13] is 1.19; in assay [8], 3; in assay [9], 3; in assay [15] it was greater than 3.
Turning to `CC1(C)CC(=O)n2c3cccc(O)c3c3c4c(cc1c32)CNCC4`, the Log 1/M in [1] was found to be 5.88; in assay [2], 4.84; in assay [3], 5.15; in [5], 5.75; in assay [6], 5.56; in [10], 5.84. The values for the Log 1/M in assay [11] and in assay [12] were 5.8 and 5.97, respectively. The Cooperativity in [4] stood at 0.8; in assay [20] it was 1.19; in assay [7], 3; in [8], 3.
Take `CC1(C)CC(=O)n2c3ccccc3c3c4c(cc1c32)CCNC4`: the Log 1/M in assay [1] is 5.87; in [2], 4.56; in [3] it was 4.86; in assay [5], 5.42; in assay [6] it was 5.69; in assay [10] it was 5.69. Further, the figures for the Log 1/M in assay [11] and in [12] were 5.6 and 5.8, respectively. Besides, the Cooperativity stood at 0.8 in assay [4], 3 in assay [7], 3 in assay [8] and 3 in assay [9].
Turning to `O=C1CCc2cc3c(c4c5c(Cl)cccc5n1c24)CCNC3`, the Log 1/M is 7.12 in [1]; 6.05 in assay [2]; 5.92 in [3]; 6.26 in [5]; 6.6 in assay [6]; 6.58 in assay [10]. Further, the Log 1/M worked out at 6.24 in assay [11] and 6.66 in assay [12]. For the same compound, the Cooperativity in assay [13] was 1.19; in assay [14], greater than 3; in assay [7] it was 3; in [9] it was 3.
With `N#Cc1ccc2c3c4c(cc5c3n(c2c1)C(=O)CC5)CNCC4`, the Log 1/M in assay [1] was determined as 5.58; in [2], 4.68; in [3], 5.19; in assay [5], 5.85; in assay [6], 5.79; in [10] it was 5.46. Also, the figures for the Log 1/M in assay [11] and in assay [12] were 5.87 and 5.36, respectively. In addition, the Cooperativity in assay [21] is 1.19; in assay [4] it was 0.8; in assay [18], 0.8; in assay [19], 0.8.
Take `COC(=O)c1ccc2c(c1)c1c3c(cc4c1n2C(=O)CC4)CCNC3`: the Log 1/M worked out at 6.03 in assay [1]; 4.88 in [2]; 5.55 in assay [3]; 5.84 in assay [5]; 6.14 in [6]; 5.85 in assay [10]. Moreover, the Log 1/M in assay [11] was 6.19; in [12], 5.91. Further, the Cooperativity in assay [21] was 1.19; in assay [4], 0.8; in assay [18], 0.8; in assay [19], 0.8.
Turning to `COc1ccc2c3c4c(cc5c3n(c2c1)C(=O)CC5)CCNC4`, the Log 1/M was determined as 6.18 in assay [1]; 4.86 in [2]; 5.14 in assay [3]; 5.68 in assay [5]; 5.92 in assay [6]; 6.17 in assay [10]. Moreover, the Log 1/M in assay [11] turned out to be 6.13; in assay [12], 6. The Cooperativity in assay [4] was 0.8; in assay [20] it was 1.19; in [7] it was 3; in assay [8] it was 3.
